According to US9724357B2, “Methods for preserving photoreceptor cell viability following retinal detachment” (Massachusetts Eye & Ear Infirmary, priority 2011, dated 2017):

What was measured:
Type in all cases: in vivo, Brown Norway rats
[1] = system: photoreceptor cells of detached retina (outer nuclear layer); test: Outer nuclear layer (ONL) thickness after experimental retinal detachment; details: 500 mg/kg/day i.p., mean±SD
From the text: (§1) In the examples described herein, all animal experiments adhered to the Association for Research in Vision and Ophthalmology Statement for the Use of Animals in Ophthalmic and Vision Research, and protocols were approved by the Animal Care Committee of the Massachusetts Eye and Ear Infirmary. Adult male Brown Norway rats (200 to 300 g) were purchased from Charles River Laboratories (Wilmington, Mass.). The rats were fed standard laboratory chow and allowed free access to water in an air-conditioned room with a 12 hour light/12 hour dark cycle.
(§2) Experimental retinal detachment was induced by subretinal injection of hyaluronic acid as previously described (Hisatomi T et al. (2001) AM. J. PATHOL. 158:1271-1278). […] Body temperature was monitored and the animals were kept on a heating pad during the procedure as well as during the recovery period. […]
(§3) All values disclosed below were expressed as the mean±SD. Statistical differences between two groups were analyzed by Mann-Whitney U test. […]
Photoreceptor loss was evaluated by measuring the thickness of the outer nuclear layer (ONL). ONL thickness was determined using National Institutes of Health ImageJ software. Thickness was measured based on the outer boundaries of the DAPI nuclear stain. […]

caspase 2 = test: Caspase 2 colorimetric activity assay in retinal lysates after retinal detachment; details: retinal lysates 24 hours after retinal detachment; 500 mg/kg/day i.p.; P<0.05
From the text: as §1
(§4) Experimental retinal detachment was induced by subretinal injection of hyaluronic acid as previously described (Hisatomi T et al. (2001) AM. J. PATHOL. 158:1271-1278). Briefly, rats were anesthetized with 100 μl of a mixture of 5 parts Ketamine (100 mg/ml, Phoenix Pharmaceutical, Inc., St Joseph, Mo.), 4 parts PBS and 1 part Xylazine (100 mg/ml, Lloyd Laboratories, Inc., Shenandoah, Iowa). Body temperature was monitored and the animals were kept on a heating pad during the procedure as well as during the recovery period. […]
(§5) The caspase assays were performed on the retina of animals without retinal detachment (n=6) as well as animals with retinal detachment that received vehicle (n=8) or TUDCA (n=8). […] Optical density was assessed at 405 nm and normalized for protein concentration, initial optical density, and compared to a sample filled with buffer. […]

caspase 3 = test: Caspase 3 colorimetric activity assay in retinal lysates after retinal detachment; details: retinal lysates 24 hours after retinal detachment; 500 mg/kg/day i.p.; P<0.05
From the text: as §1, §4, §5

[2] = system: photoreceptor cells of detached retina (outer nuclear layer); test: TUNEL staining of photoreceptor death after experimental retinal detachment; details: administration started six hours after induction of retinal detachment; P=0.03; readout not given
From the text: as §1, §2, §3
Photoreceptor death was assessed by TUNEL staining, which detects DNA fragmentation in apoptotic or necrotic nuclei. […] Fluorescence was imaged using a DM RXA microscope (Leica, Solms Germany) and digitally captured. The number of TUNEL-positive cells per mm^2 at the central area of the detached retina was counted in a masked fashion. […]

TNF-α = TNF-α ELISA on retinal lysates after retinal detachment; details: 24 hours after retinal detachment; 500 mg/kg/day i.p.; vs vehicle
From the text: as §1
as §4, with “period. The pupils were dilated with drops of phenylephrine 5%/tropicamide 0.5%.” for “period.”
(§6) In order to measure inflammatory cytokines, eight eyes from each group (animals without retinal detachment as well as animals with retinal detachment that received vehicle or TUDCA) were analyzed using ELISA assays. […]

caspase 9 = test: Caspase 9 colorimetric activity assay in retinal lysates after retinal detachment; details: retinal lysates 24 hours after retinal detachment; 500 mg/kg/day i.p.; P<0.05
From the text: as §1, §4, §5

CD68+ cells = test: Macrophage infiltration (CD68+ immunostaining) in detached retina; details: one day after induction of retinal detachment; 500 mg/kg/day i.p.; vs vehicle
From the text: as §1, §4
In order to assess macrophage infiltration in detached retinas, six eyes from each group (rats treated with vehicle or TUDCA) were analyzed. […] The number of CD68+ cells per […] was determined using the same method as described above for the quantification of TUNEL-positive cells.

caspase 8 = test: Caspase 8 colorimetric activity assay in retinal lysates after retinal detachment; details: retinal lysates 24 hours after retinal detachment; 500 mg/kg/day i.p.
From the text: as §1, §4, §5

CHOP = CHOP western blot (ER stress) of vitreous and neural retina after retinal detachment; details: three days after retinal detachment, systemic administration 500 mg/kg/day i.p.
From the text: as §1
as §4, with “period. The pupils were dilated with drops of phenylephrine 5%/tropicamide 0.5%. A partial retinal detachment was induced with a transscleral, subretinal injection of approximately 50 μl of 1% sodium hyaluronate (Provisc, Alcon Laboratories Inc., Fort Worth, Tex.).” for “period.”

protein carbonyl content = test: Protein carbonyl content ELISA (oxidative stress) in retina after retinal detachment; details: one day (24 hours) after retinal detachment; 500 mg/kg/day i.p.; vs vehicle
From the text: as §1, §4
In order to assess the effect of TUDCA treatment on oxidative stress, the protein carbonyl content in the retina was determined Eight eyes from each group (animals without retinal detachment as well as animals with retinal detachment that received vehicle or TUDCA) were analyzed using ELISA assays. […]

MCP-1 = MCP-1 ELISA on retinal lysates after retinal detachment; details: samples 24 and 72 hours after retinal detachment (FIG. 2B: one day); 500 mg/kg/day i.p.; vs vehicle
From the text: as §1
as §4, with “period. The pupils were dilated with drops of phenylephrine 5%/tropicamide 0.5%.” for “period.”
as §6

caspase 11 = test: Caspase 11 western blot of vitreous and neural retina after retinal detachment; details: samples three days after retinal detachment, 500 mg/kg/day i.p.

C[C@H](CCC(=O)NCCS(=O)(=O)O)[C@H]1CC[C@H]2[C@@H]3[C@@H](O)C[C@@H]4C[C@H](O)CC[C@]4(C)[C@H]3CC[C@]12C [TUDCA, tauroursodeoxycholic acid]
ONL thickness ratio (normalized, detached/attached retina) ([1]; five days after detachment, vehicle 0.57±0.04, P=0.002): 0.79±0.03
ONL thickness ratio (normalized, detached/attached retina) ([1]; three days of retinal detachment, vehicle 0.65±0.03, P=0.0016): 0.84±0.03
effect on retinal detachment-induced activity of caspase 2 (caspase 2): significantly decreased
effect on retinal detachment-induced activity of caspase 3 (caspase 3): significantly decreased
neuroprotection with delayed treatment (FIG. 1D) [2]: showed efficient neuroprotection
effect on levels of TNF-α (TNF-α): did not affect
effect on retinal detachment-induced activity of caspase 9 (caspase 9): significantly decreased
effect on macrophage infiltration (CD68+ cells) (CD68+ cells): did not affect macrophage infiltration
effect on activity of caspase 8 (caspase 8): did not alter
effect on CHOP expression (CHOP): did not significantly alter CHOP expression
effect on protein carbonyl content (protein carbonyl content): prevented an increase in protein carbonyl content
effect on levels of MCP-1 (MCP-1): did not affect
effect on activity of caspase 11 (caspase 11): did not alter
